According to PubChem BioAssay (NCI):
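Interpolation was linear, between the two tested concentrations surrounding the appropriate level; five concentrations were tested over 48 hours in 96-well plates. The concentration for 50% growth inhibition is given as GI50. Definition used: TGI = concentration required for complete inhibition of growth.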

Experiments:
Assay in all cases: DTP human tumour cell line panel, 48 h
COLO 205 colon = system: COLO 205 colon
SR leukemia = system: SR leukemia
HOP-62 NSCLC = system: HOP-62 NSCLC
HCC-2998 colon = system: HCC-2998 colon
T-47D breast = system: T-47D breast
SK-OV-3 ovarian = system: SK-OV-3 ovarian
SK-MEL-5 melanoma = system: SK-MEL-5 melanoma
SN12C renal = system: SN12C renal
SNB-19 CNS = system: SNB-19 CNS
NCI-H23 lung = system: NCI-H23 lung
U251 CNS = system: U251 CNS
NCI-H226 lung = system: NCI-H226 lung
MALME-3M melanoma = system: MALME-3M melanoma
KM12 colon = system: KM12 colon
SF-539 CNS = system: SF-539 CNS
A549 NSCLC = system: A549 NSCLC
CCRF-CEM leukemia = system: CCRF-CEM leukemia
SF-268 CNS = system: SF-268 CNS
HS 578T breast = system: HS 578T breast
786-0 renal = system: 786-0 renal
HOP-92 NSCLC = system: HOP-92 NSCLC
HT29 colon = system: HT29 colon
OVCAR-5 ovarian = system: OVCAR-5 ovarian
CAKI-1 renal = system: CAKI-1 renal
RPMI-8226 leukemia = system: RPMI-8226 leukemia
K-562 leukemia = system: K-562 leukemia
M14 melanoma = system: M14 melanoma
OVCAR-3 ovarian = system: OVCAR-3 ovarian
MOLT-4 leukemia = system: MOLT-4 leukemia
NCI-H460 lung = system: NCI-H460 lung
A498 renal = system: A498 renal
SF-295 CNS = system: SF-295 CNS
BT-549 breast = system: BT-549 breast
RXF 393 renal = system: RXF 393 renal
UACC-62 melanoma = system: UACC-62 melanoma
MDA-MB-435 = system: MDA-MB-435
SNB-75 CNS = system: SNB-75 CNS
PC-3 prostate = system: PC-3 prostate
HCT-116 colon = system: HCT-116 colon
SK-MEL-2 melanoma = system: SK-MEL-2 melanoma
MCF7 breast = system: MCF7 breast
DU-145 prostate = system: DU-145 prostate
UO-31 renal = system: UO-31 renal
TK-10 renal = system: TK-10 renal
HCT-15 colon = system: HCT-15 colon
MDA-MB-231 breast = system: MDA-MB-231 breast
LOX IMVI melanoma = system: LOX IMVI melanoma
NCI-H522 lung = system: NCI-H522 lung
SW-620 colon = system: SW-620 colon
ACHN renal = system: ACHN renal
OVCAR-4 ovarian = system: OVCAR-4 ovarian
HL-60(TB) leukemia = system: HL-60(TB) leukemia
SK-MEL-28 melanoma = system: SK-MEL-28 melanoma
IGROV1 ovarian = system: IGROV1 ovarian
UACC-257 melanoma = system: UACC-257 melanoma
OVCAR-8 ovarian = system: OVCAR-8 ovarian
NCI/ADR-RES ovarian = system: NCI/ADR-RES ovarian

Which results are given for O=C(Nc1cccc(-n2cc(-c3ccncc3)c(-c3ccc(Cl)c(O)c3)n2)c1)Nc1ccc(Cl)c(C(F)(F)F)c1?
GI50 (COLO 205 colon): 2230 nM; TGI (COLO 205 colon): 6.73 µM; GI50 (SR leukemia): 663 nM; TGI (SR leukemia): 2050 nM; GI50 (HOP-62 NSCLC): 1040 nM; TGI (HOP-62 NSCLC): 4.75 µM; GI50 (HCC-2998 colon): 1390 nM; TGI (HCC-2998 colon): 6.23 µM; GI50 (T-47D breast): 911 nM; TGI (T-47D breast): 9.01 µM; GI50 (SK-OV-3 ovarian): 1270 nM; TGI (SK-OV-3 ovarian): 9.73 µM; GI50 (SK-MEL-5 melanoma): 528 nM; TGI (SK-MEL-5 melanoma): 1040 nM; GI50 (SN12C renal): 1050 nM; TGI (SN12C renal): 10.3 µM; GI50 (SNB-19 CNS): 1170 nM; TGI (SNB-19 CNS): 5.31 µM; GI50 (NCI-H23 lung): 1040 nM; TGI (NCI-H23 lung): 4 µM; GI50 (U251 CNS): 542 nM; TGI (U251 CNS): 1270 nM; GI50 (NCI-H226 lung): 1330 nM; TGI (NCI-H226 lung): 14.6 µM; GI50 (MALME-3M melanoma): 557 nM; TGI (MALME-3M melanoma): 1580 nM; GI50 (KM12 colon): 910 nM; TGI (KM12 colon): 3.43 µM; GI50 (SF-539 CNS): 730 nM; TGI (SF-539 CNS): 2200 nM; GI50 (A549 NSCLC): 914 nM; TGI (A549 NSCLC): 4.07 µM; GI50 (CCRF-CEM leukemia): 719 nM; TGI (CCRF-CEM leukemia): 2700 nM; GI50 (SF-268 CNS): 1110 nM; TGI (SF-268 CNS): 6.65 µM; GI50 (HS 578T breast): 1050 nM; TGI (HS 578T breast): 15.7 µM; GI50 (786-0 renal): 1020 nM; TGI (786-0 renal): 8.25 µM; GI50 (HOP-92 NSCLC): 310 nM; TGI (HOP-92 NSCLC): 1290 nM; GI50 (HT29 colon): 2050 nM; TGI (HT29 colon): 7.11 µM; GI50 (OVCAR-5 ovarian): 1710 nM; TGI (OVCAR-5 ovarian): 12.3 µM; GI50 (CAKI-1 renal): 726 nM; TGI (CAKI-1 renal): 2300 nM; GI50 (RPMI-8226 leukemia): 487 nM; TGI (RPMI-8226 leukemia): 1670 nM; GI50 (K-562 leukemia): 768 nM; TGI (K-562 leukemia): 9.36 µM; GI50 (M14 melanoma): 805 nM; TGI (M14 melanoma): 2300 nM; GI50 (OVCAR-3 ovarian): 658 nM; TGI (OVCAR-3 ovarian): 1950 nM; GI50 (MOLT-4 leukemia): 777 nM; TGI (MOLT-4 leukemia): 2930 nM; GI50 (NCI-H460 lung): 963 nM; TGI (NCI-H460 lung): 3.69 µM; GI50 (A498 renal): 1240 nM; TGI (A498 renal): 7.93 µM; GI50 (SF-295 CNS): 656 nM; TGI (SF-295 CNS): 1710 nM; GI50 (BT-549 breast): 1160 nM; TGI (BT-549 breast): 5.36 µM; GI50 (RXF 393 renal): 557 nM; TGI (RXF 393 renal): 1670 nM; GI50 (UACC-62 melanoma): 609 nM; TGI (UACC-62 melanoma): 1470 nM; GI50 (MDA-MB-435): 640 nM; TGI (MDA-MB-435): 1660 nM; GI50 (SNB-75 CNS): 514 nM; TGI (SNB-75 CNS): 5.05 µM; GI50 (PC-3 prostate): 533 nM; TGI (PC-3 prostate): 2110 nM; GI50 (HCT-116 colon): 938 nM; TGI (HCT-116 colon): 3.63 µM; GI50 (SK-MEL-2 melanoma): 784 nM; TGI (SK-MEL-2 melanoma): 1680 nM; GI50 (MCF7 breast): 663 nM; TGI (MCF7 breast): 32.5 µM; GI50 (DU-145 prostate): 1160 nM; TGI (DU-145 prostate): 4.51 µM; GI50 (UO-31 renal): 738 nM; TGI (UO-31 renal): 2590 nM; GI50 (TK-10 renal): 1330 nM; TGI (TK-10 renal): 7.52 µM; GI50 (HCT-15 colon): 949 nM; TGI (HCT-15 colon): 10.3 µM; GI50 (MDA-MB-231 breast): 538 nM; TGI (MDA-MB-231 breast): 1480 nM; GI50 (LOX IMVI melanoma): 554 nM; TGI (LOX IMVI melanoma): 1150 nM; GI50 (NCI-H522 lung): 643 nM; TGI (NCI-H522 lung): 2190 nM; GI50 (SW-620 colon): 1070 nM; TGI (SW-620 colon): 3.77 µM; GI50 (ACHN renal): 890 nM; TGI (ACHN renal): 32.5 µM; GI50 (OVCAR-4 ovarian): 1120 nM; TGI (OVCAR-4 ovarian): 27.2 µM; GI50 (HL-60(TB) leukemia): 1230 nM; TGI (HL-60(TB) leukemia): 8.99 µM; GI50 (SK-MEL-28 melanoma): 928 nM; TGI (SK-MEL-28 melanoma): 3.21 µM; GI50 (IGROV1 ovarian): 770 nM; TGI (IGROV1 ovarian): 2430 nM; GI50 (UACC-257 melanoma): 705 nM; TGI (UACC-257 melanoma): 1880 nM; GI50 (OVCAR-8 ovarian): 759 nM; TGI (OVCAR-8 ovarian): 2280 nM; GI50 (NCI/ADR-RES ovarian): 1010 nM; TGI (NCI/ADR-RES ovarian): 9.46 µM
